Assays:
[1] = system: SW620 MTHFD2-/-; assay: EC50 for viability (resazurin, 96 h); conditions: RPMI+GlutaMAX (5% dFBS, 1% P/S)
[2] = system: SW620 WT; assay: EC50 for viability (resazurin, 96 h); conditions: RPMI+GlutaMAX (5% dFBS, 1% P/S)
[3] = system: SW620 MTHFD2 -/-; assay: EC50 for viability (resazurin, 96 h); conditions: RPMI+GlutaMAX (5% dFBS, 1% P/S)
[4] = system: SW620; assay: EC50 for viability (resazurin, 96 h)
[5] = system: HCT116; assay: EC50 for viability (resazurin, 96 h); conditions: RPMI+GlutaMAX (10% FBS, 1% P/S)
[6] = system: SW620; assay: cell viability relative to lowest-dose well (resazurin, 96 h); higher = more viable; conditions: RPMI + 10% FBS
In short: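 HCT116 (500 cells/well) or SW620 (1,000 cells/well) cells were seeded in 50 µl RPMI with 10% FBS plus a metabolite supplement in 384-well plates. Compounds were dispensed from 10 mM DMSO stocks as dilution series, and plates were incubated 96 h at 37 °C, 5% CO2. Viability was read as resazurin (10 µg ml^−1) conversion to resorufin after 5 h, by fluorescence at 595 nm. Values are percent of the lowest-dose well, with independent replicate cultures. Viability was read by resazurin-to-resorufin conversion and normalised to the lowest-dose vehicle well (=100%).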

CN(Cc1cnc2nc(N)nc(N)c2n1)c1ccc(C(=O)N[C@@H](CCC(=O)O)C(=O)O)cc1 [methotrexate]
Conditions	EC50 for viability [nM]
[1], metabolite supplement: Formate	2.14
[1], metabolite supplement: Hypoxanthine	12
[1], metabolite supplement: Hypoxanthine + Formate	12.9
[2], metabolite supplement: Adenine	31
[2], metabolite supplement: Adenosine	34.5
[2], metabolite supplement: Guanosine	19.8
[2], metabolite supplement: Hypoxanthine	21.1
[2], metabolite supplement: Hypoxanthine + AICAr 10 µM	18.1
[2], metabolite supplement: Hypoxanthine + AICAr 30 µM	21.9
[2], metabolite supplement: Hypoxanthine + AICAr 50 µM	14.2
[2], metabolite supplement: Hypoxanthine + AICAr 100 µM	11.3
[2], metabolite supplement: Sodium Formate	6.74
[2], metabolite supplement: Thymidine	8.47
[2], metabolite supplement: Thymidine + Sodium Formate	6.79
[2], metabolite supplement: Vehicle	6.53
[3], metabolite supplement: Hypoxanthine	16.7
[3], metabolite supplement: Sodium Formate	10.6
[3], metabolite supplement: Thymidine	2.67
[3], metabolite supplement: Thymidine + Sodium Formate	9.38
[3], metabolite supplement: Vehicle	2.33
[5], metabolite supplement: Hypoxanthine	20.3
[5], metabolite supplement: Thymidine	12.6

Conditions	EC50 for viability [nM]	cell viability [%]
[4], HPLM (5% dFBS, 1% P/S), metabolite supplement: Vehicle	27	–
[4], RPMI+GlutaMAX (5% dFBS, 1% P/S), metabolite supplement: 50 µM Hypoxanthine	21.8	–
[4], RPMI+GlutaMAX (5% dFBS, 1% P/S), metabolite supplement: Vehicle	8.7	–
[4], RPMI+GlutaMAX (10% FBS, 1% P/S), metabolite supplement: Folic acid	96.3	–
[4], RPMI+GlutaMAX (10% FBS, 1% P/S), metabolite supplement: Folinic acid	366	–
[4], RPMI+GlutaMAX (10% FBS, 1% P/S), metabolite supplement: Hypoxanthine	26.2	–
[4], RPMI+GlutaMAX (10% FBS, 1% P/S), metabolite supplement: Thymidine	12.4	–
[4], RPMI+GlutaMAX (10% FBS, 1% P/S), metabolite supplement: Thymidine + Folic acid	81.8	–
[4], RPMI+GlutaMAX (10% FBS, 1% P/S), metabolite supplement: Thymidine + Folinic acid	388	–
[4], RPMI+GlutaMAX (10% FBS, 1% P/S), metabolite supplement: Vehicle	11.6	–
[6], 0.001 µM, metabolite supplement: 50uM thymidine	–	96.3
[6], 0.001 µM, metabolite supplement: 50uM thymidine + 250uM hypoxanthine	–	95.7
[6], 0.001 µM, metabolite supplement: 250uM hypoxanthine	–	98.8
[6], 0.001 µM, metabolite supplement: vehicle	–	98
[6], 0.00278 µM, metabolite supplement: 50uM thymidine	–	95
[6], 0.00278 µM, metabolite supplement: 50uM thymidine + 250uM hypoxanthine	–	94.5
[6], 0.00278 µM, metabolite supplement: 250uM hypoxanthine	–	99.5
[6], 0.00278 µM, metabolite supplement: vehicle	–	96.3
[6], 0.00774 µM, metabolite supplement: 50uM thymidine	–	76.7
[6], 0.00774 µM, metabolite supplement: 50uM thymidine + 250uM hypoxanthine	–	93.4
[6], 0.00774 µM, metabolite supplement: 250uM hypoxanthine	–	96.2
[6], 0.00774 µM, metabolite supplement: vehicle	–	79.3
[6], 0.0215 µM, metabolite supplement: 50uM thymidine	–	42.2
[6], 0.0215 µM, metabolite supplement: 50uM thymidine + 250uM hypoxanthine	–	97.4
[6], 0.0215 µM, metabolite supplement: 250uM hypoxanthine	–	75.1
[6], 0.0215 µM, metabolite supplement: vehicle	–	60.4
[6], 0.0599 µM, metabolite supplement: 50uM thymidine	–	34.3
[6], 0.0599 µM, metabolite supplement: 50uM thymidine + 250uM hypoxanthine	–	90.2
[6], 0.0599 µM, metabolite supplement: 250uM hypoxanthine	–	32.8
[6], 0.0599 µM, metabolite supplement: vehicle	–	33.7
[6], 0.167 µM, metabolite supplement: 50uM thymidine	–	34.8
[6], 0.167 µM, metabolite supplement: 50uM thymidine + 250uM hypoxanthine	–	96.4
[6], 0.167 µM, metabolite supplement: 250uM hypoxanthine	–	28
[6], 0.167 µM, metabolite supplement: vehicle	–	26.9
[6], 0.464 µM, metabolite supplement: 50uM thymidine	–	33.1
[6], 0.464 µM, metabolite supplement: 50uM thymidine + 250uM hypoxanthine	–	94.7
[6], 0.464 µM, metabolite supplement: 250uM hypoxanthine	–	28.3
[6], 0.464 µM, metabolite supplement: vehicle	–	27
[6], 1.29 µM, metabolite supplement: 50uM thymidine	–	32.6
[6], 1.29 µM, metabolite supplement: 50uM thymidine + 250uM hypoxanthine	–	87.5
[6], 1.29 µM, metabolite supplement: 250uM hypoxanthine	–	28.4
[6], 1.29 µM, metabolite supplement: vehicle	–	26.4
[6], 3.59 µM, metabolite supplement: 50uM thymidine	–	30.9
[6], 3.59 µM, metabolite supplement: 50uM thymidine + 250uM hypoxanthine	–	83.6
[6], 3.59 µM, metabolite supplement: 250uM hypoxanthine	–	29.6
[6], 3.59 µM, metabolite supplement: vehicle	–	28.3
[6], 10 µM, metabolite supplement: 50uM thymidine	–	30.5
[6], 10 µM, metabolite supplement: 50uM thymidine + 250uM hypoxanthine	–	83.6
[6], 10 µM, metabolite supplement: 250uM hypoxanthine	–	29.5
[6], 10 µM, metabolite supplement: vehicle	–	29.3
